The results in this text go back to the NIST ThermoML archive (doi:10.1016/j.fluid.2018.11.011).

Numbers after ± are expanded uncertainties.

This data set is described as follows: activity coefficient (dimensionless); of the first substance listed, at infinite dilution; xn = mol fraction of the nth substance listed. The note with it: 101.33 kPa, Liquid, Chromatography, x1 = 0.

For `CCCCCCC` [heptane] + CCCCCCCCCC[N+](C)(C)CCCCCCCCCC.[O-][Cl+3]([O-])([O-])[O-], the activity coefficient reads like this: (308 K) 3.11 ± 0.33; (323 K) 2.96 ± 0.31; (338 K) 2.85 ± 0.3; (353 K) 2.67 ± 0.28.

Consider `C=CCCCC` [hex-1-ene] + CCCCCCCCCC[N+](C)(C)CCCCCCCCCC.F[B-](F)(F)F, for which the activity coefficient runs as follows: (308 K) 1.51 ± 0.16; (323 K) 1.52 ± 0.16; (338 K) 1.53 ± 0.16; (353 K) 1.76 ± 0.18.

`C=CCCCC` [hex-1-ene] + CCCCCCCCCC[N+](C)(C)CCCCCCCCCC.[O-][Cl+3]([O-])([O-])[O-]: the activity coefficient by setting is: (308 K) 2.28 ± 0.24; (323 K) 1.56 ± 0.16; (338 K) 1.8 ± 0.19; (353 K) 1.73 ± 0.18.

For `CCCCCC` [hexane] + CCCCCCCCCC[N+](C)(C)CCCCCCCCCC.F[B-](F)(F)F, the activity coefficient by setting is: (308 K) 2.73 ± 0.29; (323 K) 2.51 ± 0.26; (338 K) 2.3 ± 0.24; (353 K) 2.2 ± 0.23.

On to `CCCCCC` [hexane] + CCCCCCCCCC[N+](C)(C)CCCCCCCCCC.[O-][Cl+3]([O-])([O-])[O-], for which the activity coefficient by setting is: (308 K) 2.49 ± 0.26; (323 K) 2.48 ± 0.26; (338 K) 2.47 ± 0.26; (353 K) 2.45 ± 0.26.

With `CO` [methanol] + CCCCCCCCCC[N+](C)(C)CCCCCCCCCC.F[B-](F)(F)F, the activity coefficient turned out to be 0.294 ± 0.039 (308 K), 0.289 ± 0.038 (323 K), 0.285 ± 0.038 (338 K) and 0.327 ± 0.041 (353 K).

As to `CO` [methanol] + CCCCCCCCCC[N+](C)(C)CCCCCCCCCC.[O-][Cl+3]([O-])([O-])[O-], the activity coefficient came out at 0.447 ± 0.051 (308 K), 0.351 ± 0.043 (323 K), 0.419 ± 0.048 (338 K) and 0.407 ± 0.047 (353 K).

For `C=CCCCCCC` [oct-1-ene] + CCCCCCCCCC[N+](C)(C)CCCCCCCCCC.F[B-](F)(F)F, the activity coefficient by setting is: (308 K) 0.765 ± 0.079; (323 K) 0.757 ± 0.078; (338 K) 0.749 ± 0.078; (353 K) 0.951 ± 0.097.

In the case of `C=CCCCCCC` [oct-1-ene] + CCCCCCCCCC[N+](C)(C)CCCCCCCCCC.[O-][Cl+3]([O-])([O-])[O-], the activity coefficient was found to be 1.1 ± 0.11 (308 K), 0.999 ± 0.1 (323 K), 1.04 ± 0.11 (338 K) and 0.938 ± 0.096 (353 K).

For `CCCCCCCC` [octane] + CCCCCCCCCC[N+](C)(C)CCCCCCCCCC.F[B-](F)(F)F, the activity coefficient amounted to 4.41 ± 0.46 (308 K), 3.71 ± 0.39 (323 K), 3.13 ± 0.33 (338 K) and 2.89 ± 0.3 (353 K).

For the molecule `CCCCCCCC` [octane] + CCCCCCCCCC[N+](C)(C)CCCCCCCCCC.[O-][Cl+3]([O-])([O-])[O-], the activity coefficient runs as follows: (308 K) 3.98 ± 0.42; (323 K) 3.69 ± 0.39; (338 K) 3.42 ± 0.36; (353 K) 3.16 ± 0.33.

`CCCCC` [pentane] + CCCCCCCCCC[N+](C)(C)CCCCCCCCCC.F[B-](F)(F)F: the activity coefficient was found to be 1.85 ± 0.19 (308 K), 1.51 ± 0.16 (323 K), 1.24 ± 0.13 (338 K) and 1.08 ± 0.11 (353 K).

As for `CCCCC` [pentane] + CCCCCCCCCC[N+](C)(C)CCCCCCCCCC.[O-][Cl+3]([O-])([O-])[O-], the activity coefficient is, setting by setting: (308 K) 1.77 ± 0.18; (323 K) 1.59 ± 0.17; (338 K) 1.44 ± 0.15; (353 K) 1.28 ± 0.13.

In the case of `CC(C)O` [propan-2-ol] + CCCCCCCCCC[N+](C)(C)CCCCCCCCCC.F[B-](F)(F)F, the activity coefficient is, setting by setting: (323 K) 3.47 ± 0.37; (338 K) 2.41 ± 0.25; (353 K) 1.9 ± 0.2.

For `CC(C)O` [propan-2-ol] + CCCCCCCCCC[N+](C)(C)CCCCCCCCCC.[O-][Cl+3]([O-])([O-])[O-], the activity coefficient (323 K) worked out at 1.5 ± 0.16, the activity coefficient (338 K) came to 1.54 ± 0.16 and the activity coefficient (353 K) came out at 1.11 ± 0.11.

Regarding `C1CCOC1` [tetrahydrofuran] + CCCCCCCCCC[N+](C)(C)CCCCCCCCCC.F[B-](F)(F)F, the activity coefficient reads like this: (323 K) 0.662 ± 0.07; (338 K) 0.619 ± 0.066; (353 K) 0.695 ± 0.073.

Regarding `C1CCOC1` [tetrahydrofuran] + CCCCCCCCCC[N+](C)(C)CCCCCCCCCC.[O-][Cl+3]([O-])([O-])[O-], the activity coefficient runs as follows: (323 K) 0.478 ± 0.053; (338 K) 0.46 ± 0.052; (353 K) 0.536 ± 0.058.

In the case of `ClC(Cl)Cl` [trichloromethane] + CCCCCCCCCC[N+](C)(C)CCCCCCCCCC.F[B-](F)(F)F, the activity coefficient runs as follows: (323 K) 0.318 ± 0.04; (338 K) 0.346 ± 0.042; (353 K) 0.399 ± 0.047.

Take `ClC(Cl)Cl` [trichloromethane] + CCCCCCCCCC[N+](C)(C)CCCCCCCCCC.[O-][Cl+3]([O-])([O-])[O-]: the activity coefficient runs as follows: (323 K) 0.224 ± 0.034; (338 K) 0.29 ± 0.038; (353 K) 0.302 ± 0.039.
